Laboratory results: PMC6244841, “Enhanced Absorption and Growth Inhibition with Amino Acid Monoester Prodrugs of Floxuridine by Targeting hPEPT1 Transporters” (Molecules, 2008)
Marks after values point to notes of the source that are not given here.

What was measured:
[1] = Enzymatic stability in MDCK cell homogenates; format: in vitro ADME; conditions: dog, pH 7.4, 37°C, protein 500 μg/mL, mean ± S.D., read-out: Half Life, Homogenates from MDCK cells
Protocol: (§1) The experiments concerning prodrug stability were performed at 37°C in pH 7.4 phosphate buffers and Caco-2, AsPC-1, and MDCK cell homogenates.
(§2) Enzymatic Stability. Confluent Caco-2 cells, AsPC-1 cells, and MDCK cells were rinsed twice with saline. The cells were washed with pH 7.4 phosphate buffer (5 mL, 10 mmol/L), lysed by ultrasonication (Micro ultrasonic cell disrupter Model KT40, Kontes, Vineland, NJ, USA), and pelleted by centrifugation for 5 minutes at 1,000 x g. Protein amount was quantified with the Bio-Rad (Hercules, CA, USA) DC Protein Assay using bovine serum albumin as a standard. The amount of protein was adjusted to 500 μg/mL and hydrolysis reactions were carried out in 96-well plates (Corning). Caco-2, AsPC-1, and MDCK cell suspensions (250 µL) were placed in triplicate wells, the reactions were started with the addition of substrate, and cells were incubated at 37°C for 120 minutes. At the desired time point, sample aliquots (35 µL) were removed and added to acetonitrile (ACN, 150 µL) with 0.1% TFA. The mixtures were filtered with a 0.45 µm filters at 1,000 x g for 10 minutes at 4°C. The filtrate was then analyzed via reverse-phase HPLC.
(§3) The initial rates of hydrolysis were used to obtain the apparent first-order rate constants and to calculate the half-lives. The apparent first-order degradation rate constants of various floxuridine prodrugs at 37°C were determined by plotting the logarithm of prodrug remaining as a function of time. The slopes of these plots are related to the rate constant, k, and given by
(§4) k = 2.303 × slope (log C vs. time) (1)
(§5) The degradation half-lives were then calculated by the equation

[2] = Enzymatic stability in Caco-2 cell homogenates; format: in vitro ADME; conditions: for half-life: human, Caco-2, pH 7.4, 37°C, protein 500 μg/mL, mean ± S.D., read-out: Half Life, Homogenates from Caco-2 cells
Protocol: as §1, §2, §3, §4, §5

[3] = Chemical stability (nonenzymatic hydrolysis) in pH 7.4 phosphate buffer; format: physicochemical; conditions: 37°C, mean ± S.D.
Protocol: as §1
Chemical Stability. The nonenzymatic hydrolysis of the prodrugs was determined as described above, except that each well contained pH 7.4 phosphate buffers (10 mmol/L) instead of cell homogenate.
as §3, §4, §5

MDCK cells = experiment: Cell proliferation assay (XTT) in MDCK cells; format: cell-based; conditions: Canis lupus familiaris, 2 hours exposure, 24 hours recovery, mean ± S.D.
Protocol: (§6) Cell proliferation studies were conducted with MDCK cells and MDCK cells that express hPEPT1 (MDCK/hPEPT1). The cells were seeded into 96-well plates at 125,000 cells per well and allowed to attach/grow for 24 hours before drug solutions were added. The culture medium (DMEM + 10% fetal bovine serum) was removed and the cells were gently washed once with sterile pH 6.0 uptake buffer. Floxuridine and floxuridine prodrugs were 2-fold serially diluted in pH 6.0 uptake buffer from 4 to 0.25 mmol/L. Buffer alone was used as 100% viability control. The wash buffer was removed and 30 µL drug solution per well was added and incubated at 37°C for 2 hours in the cell incubator. After this time, the drug solutions were removed and the cells were again gently washed twice with sterile uptake buffer. The culture medium was then added to each well after washing. The cells were allowed to recover for 24 hours before evaluating cell viability via 2,3-bis[2-methoxy-4-nitro-5-sulfophenyl]-2H-tetrazolium-5-carboxanilide inner salt (XTT) assays. A mixture (30 µL) containing XTT (1 mg/mL) in sterile DMEM without phenol red and phenazine methosulfate (N-methyldibenzopyrazine methyl sulfate in sterile PBS, 0.383 mg/mL) reagents were added to the cells and incubated at 37°C for 1 hour, after which the absorbance at 450 nm was read. The concentrations required to inhibit cell growth by 50% (GI50) were calculated using GraphPad Prism version 3.0 by nonlinear data fitting.

hPEPT1 [4] = molecular target: T1, hPEPT1 (Homo sapiens, UniProt P46059); experiment: [3H]Gly-Sar uptake inhibition in AsPC-1 cells; format: cell-based; conditions: for IC50: 10 µmol/L Gly-Sar, 30 minutes, mean ± S.D., read-out: IC50 Value, inhibition of Gly-Sar uptake, AsPC-1 cell
T1 sequence (P46059 1-708): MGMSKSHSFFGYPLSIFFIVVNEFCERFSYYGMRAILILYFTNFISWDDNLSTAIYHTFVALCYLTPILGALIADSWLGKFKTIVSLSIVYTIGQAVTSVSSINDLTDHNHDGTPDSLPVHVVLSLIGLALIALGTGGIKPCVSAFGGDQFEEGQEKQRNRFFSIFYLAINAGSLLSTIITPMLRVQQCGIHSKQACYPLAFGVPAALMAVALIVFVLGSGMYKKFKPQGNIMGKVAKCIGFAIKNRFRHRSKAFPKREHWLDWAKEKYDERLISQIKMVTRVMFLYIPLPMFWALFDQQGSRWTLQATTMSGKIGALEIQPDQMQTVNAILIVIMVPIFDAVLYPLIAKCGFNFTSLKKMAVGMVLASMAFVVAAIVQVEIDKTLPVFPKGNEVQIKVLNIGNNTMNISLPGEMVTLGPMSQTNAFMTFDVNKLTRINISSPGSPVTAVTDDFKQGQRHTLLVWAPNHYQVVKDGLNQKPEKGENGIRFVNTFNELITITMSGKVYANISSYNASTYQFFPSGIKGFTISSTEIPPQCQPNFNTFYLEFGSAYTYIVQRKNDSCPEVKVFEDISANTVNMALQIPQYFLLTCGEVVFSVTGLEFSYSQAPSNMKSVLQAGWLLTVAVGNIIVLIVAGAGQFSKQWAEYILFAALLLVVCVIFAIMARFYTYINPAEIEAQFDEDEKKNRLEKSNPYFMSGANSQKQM
Protocol: (§7) Caco-2 cells at nine days post-seeding, and AsPC-1 cells at four days post-seeding were incubated with 10 µmol/L Gly-Sar (9.98 µmol/L Gly-Sar and 0.02 µmol/L [3H]Gly-Sar) along with various prodrug concentrations (5–0.05 mmol/L) for 30 minutes. The cells were washed three times with ice-cold PBS and solubilized with 10 mL of scintillation cocktail (ScintiVerse®, Fisher Scientific, St.Louis, MO, USA). The amount of cell-associated radioactivity was determined by scintillation counting (Beckman LS-9000, Beckman Instruments, Fullerton, CA, USA). The half maximal inhibitory concentration (IC50) values were determined using nonlinear data fitting (GraphPad Prism version 3.0).

MDCK/hPEPT1 cells = experiment: Cell proliferation assay (XTT) in MDCK/hPEPT1 cells; format: cell-based; conditions: for GI50: Canis lupus familiaris, MDCK, read-out: GI50, MDCK/hPEPT1
Protocol: as §6

hPEPT1 [5] = molecular target: T1, hPEPT1; experiment: [3H]Gly-Sar uptake inhibition in Caco-2 cells; format: cell-based; conditions: for IC50: 10 µmol/L Gly-Sar, 30 minutes, mean ± S.D., read-out: IC50 Value, inhibition of Gly-Sar uptake, Caco-2 cell
Protocol: as §7

[6] = Enzymatic stability in AsPC-1 cell homogenates; format: in vitro ADME; conditions: for half-life: human, AsPC-1 cell homogenate, pH 7.4, 37°C, protein 500 μg/mL, mean ± S.D., read-out: Half Life, Homogenates from AsPC-1 cells
Protocol: as §1, §2, §3, §4, §5

[7] = parameters: method as in PMID 16132363; conditions: pH 7.4 phosphate buffer, 37°C, mean ± S.D.; ref [40]; cited from earlier work
[8] = Caco-2 permeability study (apical-to-basolateral); conditions: relative to 5-FU
[9] = relative to 5'-O-L-valyl-floxuridine

| Compound | half-life [1] | half-life [2] | half-life [3] | GI50 (MDCK cells) | IC50 (hPEPT1 [4]) | GI50 (MDCK/hPEPT1 cells) | Enhancement Factor (ratio of GI50 in MDCK and MDCK/hPEPT1 cells) (MDCK/hPEPT1 cells) | IC50 (hPEPT1 [5]) | half-life [6] | further results |
| --- | --- | --- | --- | --- | --- | --- | --- | --- | --- | --- |
| CC(C)[C@@H](N)C(=O)OC[C@H]1O[C@@H](n2cc(F)c(=O)[nH]c2=O)C[C@@H]1O [5'-O-D-valyl-floxuridine] | 312 ± 45.4 min | 343 ± 120 min | 345 ± 10.2 min | 88.5 ± 2.6 µM | 4800 ± 1300 µM | 71 ± 2.7 µM | 1.25 | 2600 ± 100 µM | 291 ± 48.9 min | fold less inhibition of the transporters than 5'-O-L-valyl-floxuridine, AsPC-1 cells (hPEPT1 [4]; [9]): 1.6 fold; improvement of cell growth inhibition in MDCK/hPEPT1 cells (MDCK/hPEPT1 cells; MDCK/hPEPT1 vs MDCK): 25%; fold less inhibition of the transporters than 5'-O-L-valyl-floxuridine, Caco-2 cells (hPEPT1 [5]; [9]): 2.5 fold |
| NCC(=O)OC[C@H]1O[C@@H](n2cc(F)c(=O)[nH]c2=O)C[C@@H]1O [5'-O-L-glycyl-floxuridine] | 11.2 ± 2 min | 24.1 ± 2 min | 85.5 ± 3.2 min | – | 2700 ± 500 µM | – | – | 2300 ± 600 µM | 27.6 ± 5.8 min | – |
| CC[C@H](C)[C@H](N)C(=O)OC[C@H]1O[C@@H](n2cc(F)c(=O)[nH]c2=O)C[C@@H]1O [5'-O-L-isoleucyl-floxuridine] | 245 ± 18.3 min | 192 ± 31.8 min | – | 186 ± 4.2 µM | 4100 ± 1800 µM | 10.3 ± 2.9 µM | 18.04 | 700 µM | 198 ± 34.1 min | Half Life, Buffer pH 7.4 [7]: 323.5 ± 1.5^a min; Enhancement Factor (ratio of GI50 in MDCK and MDCK/hPEPT1 cells) (MDCK/hPEPT1 cells; listed as 5ʹ-O-L-isoleucyl-floxuridine): 18 |
| CC(C)C[C@H](N)C(=O)OC[C@H]1O[C@@H](n2cc(F)c(=O)[nH]c2=O)C[C@@H]1O [5'-O-L-leucyl-floxuridine] | 9.2 ± 1.1 min | 4.8 ± 0.2 min | 77.3 ± 1.2 min | 23.5 ± 3 µM | 2600 ± 200 µM | 2.3 ± 1 µM | 10.09 | 2000 ± 300 µM | 2 ± 0.1 min | Enhancement Factor (ratio of GI50 in MDCK and MDCK/hPEPT1 cells) (MDCK/hPEPT1 cells; listed as 5ʹ-O-L-leucyl-floxuridine): 10; fold more quickly hydrolyzed in AsPC-1 cell homogenates than in Caco-2 cell homogenates ([6]; AsPC-1 vs Caco-2 homogenates): 2.4 fold; fold more quickly hydrolyzed in AsPC-1 cell homogenates than in MDCK cell homogenates ([6]; AsPC-1 vs MDCK homogenates): 4.7 fold |
| N[C@@H](Cc1ccccc1)C(=O)OC[C@H]1O[C@@H](n2cc(F)c(=O)[nH]c2=O)C[C@@H]1O [5'-O-L-phenylalanyl-floxuridine] | 6 ± 0.6 min | 11.1 ± 9.9 min | 222 ± 56.7 min | 41.3 ± 3.9 µM | 2000 ± 100 µM | 4.7 ± 2.4 µM | 8.80 | 2100 ± 100 µM | 11.8 ± 1.7 min | fold less stability in cell homogenates compared to pH 7.4 phosphate buffers ([2]; cell homogenates vs pH 7.4 phosphate buffers): 20 fold |
| CC(C)[C@H](N)C(=O)OC[C@H]1O[C@@H](n2cc(F)c(=O)[nH]c2=O)C[C@@H]1O [5'-O-L-valyl-floxuridine] | 74.7 ± 5.3 min | 9.4 ± 0.6 min | 304 ± 17.8 min | 127 ± 7.7 µM | 2900 ± 400 µM | 21.1 ± 4.2 µM | 5.91 | 1000 ± 100 µM | 18.7 ± 6.7 min | fold shorter half-life in Caco-2 cell homogenates than in AsPC-1 cell homogenates ([2]; Caco-2 vs AsPC-1 cell homogenates): 2 fold; Enhancement Factor (ratio of GI50 in MDCK and MDCK/hPEPT1 cells) (MDCK/hPEPT1 cells; listed as 5ʹ-O-L-valyl-floxuridine): about 6 |
| O=c1[nH]c(=O)n([C@H]2C[C@H](O)[C@@H](CO)O2)cc1F [Floxuridine, 5-fluoro-2'-deoxyuridine] | 68.9 ± 12.8 min | 5.7 ± 0.3 min | – | – | 6300 ± 2300 µM | – | 1.00 | 7300 ± 1600 µM | 6.4 ± 3.2 min | fold higher Caco-2 membrane permeability than 5-FU [8]: 12 fold |
